Where a chain is given by its changes, count along the chain named. Values belong to the compound of their own block, whether it stands above or below them.
What was measured:
AHR [1] = tested on: AHR; parameters: method as in PMID 33230523; settings: human cells overexpressing either AHR version; cited from earlier work
AHR [2] = tested on: AHR; parameters: method as in PMID 33260776; settings: 10 nM, H9 cells; two genes less expressed, 14 higher expressed; cited from earlier work
AHR^V381 [3] = molecular target: T1, AHR^V381 (Homo sapiens, UniProt P35869); settings: AHR^V381 cells, 4 h
T1 sequence (P35869 11-848): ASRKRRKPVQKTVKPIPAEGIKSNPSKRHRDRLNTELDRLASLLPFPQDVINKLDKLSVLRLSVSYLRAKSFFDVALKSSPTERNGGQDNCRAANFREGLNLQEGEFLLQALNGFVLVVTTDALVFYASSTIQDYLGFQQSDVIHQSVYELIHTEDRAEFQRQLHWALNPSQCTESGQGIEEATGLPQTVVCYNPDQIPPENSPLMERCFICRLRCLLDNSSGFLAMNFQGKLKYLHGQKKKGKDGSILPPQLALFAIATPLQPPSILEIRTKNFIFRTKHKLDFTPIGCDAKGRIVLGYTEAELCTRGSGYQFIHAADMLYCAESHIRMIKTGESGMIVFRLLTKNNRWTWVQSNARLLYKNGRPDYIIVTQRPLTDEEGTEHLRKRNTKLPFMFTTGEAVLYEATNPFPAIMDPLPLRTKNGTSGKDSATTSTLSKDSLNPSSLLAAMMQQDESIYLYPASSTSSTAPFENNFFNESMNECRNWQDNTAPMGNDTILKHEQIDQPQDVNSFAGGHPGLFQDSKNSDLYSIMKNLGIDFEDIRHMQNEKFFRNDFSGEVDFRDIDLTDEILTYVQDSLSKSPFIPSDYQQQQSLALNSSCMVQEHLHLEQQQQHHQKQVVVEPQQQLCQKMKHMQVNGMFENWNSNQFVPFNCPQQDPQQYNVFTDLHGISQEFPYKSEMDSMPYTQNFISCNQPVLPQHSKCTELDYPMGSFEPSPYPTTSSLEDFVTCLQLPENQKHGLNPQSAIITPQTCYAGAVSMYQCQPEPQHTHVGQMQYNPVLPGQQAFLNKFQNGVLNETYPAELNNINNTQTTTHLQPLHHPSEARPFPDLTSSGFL
Experimental: We incubated the cells with different concentrations of AHR ligands and measured CYP1A1 and CYP1B1 mRNA levels after 4 h.
Error bars show SDs of four independent ligand treatments. qPCR were performed in triplicates.
AHR, CYP1A1 and CYP1B1 relative quantification and ligand assays
were purchased from Sigma-Aldrich, dissolved in DMSO (Invitrogen, D12345) to generate stocks 2000x
the final concentrations used in the ligand assays and stored at -20°C.
Four days prior to cell harvest, a single cell solution was prepared with Accutase and the cells were
3000 cells per well were seeded in 96 well plates
and cultured under normal cell culture conditions for four days, with the last media change 24h before cell
harvest. Ligands were added to a final concentration of 0.05% DMSO in the culture medium for four hours
similar to other work (13-15). Cell harvest, reverse transcription and quantitative real-time PCR was […]
for several samples also AHR was measured in a 20 µl multiplexed quantitative PCR reaction with 10 µl […]
GUSB) or Thermo Fisher Scientific (CYP1B1, AHR), sequences: Suppl, Table S1). Quantitative PCR was […]
5 min, 45x (95 °C 5 s, 60 °C 15 s, 72 °C 15 s, plate read). […]
Cq values were determined with Bio-Rad Laboratories’ CFX-Manager (version 3.1) and relative […]
gene in untreated wild type cells. The data were plotted and analyzed using GraphPad Prism (version 8.4.3). […]

AHR^A381 = molecular target: T2, AHR^A381 (Homo sapiens, UniProt P35869, V381A); settings: 5 µM, 4 h
T2 sequence (P35869 11-848 V381A): T1 sequence (P35869 11-848) with V371A
From the text: (§1) the manufacturer's instructions.
(§2) manufacturer’s instructions.

AHR^V381 [4] = molecular target: T1, AHR^V381; test: RNA sequencing of treated versus mock-treated AHR^V381-expressing H9 cells; type: cell-based; parameters: they had not been changed in the editing process; endogenous in cells; host or cells: H9 human embryonic stem cells, a pool of 13 control clones that went through editing but remained wild type; settings: 5 µM, 4 h
From the text: as §1, §2

Structure (SMILES): Clc1cc2c(cc1Cl)Oc1cc(Cl)c(Cl)cc1O2 [2,3,7,8-Tetrachlorodibenzo-p-dioxin]
difference between the two AHR forms in induction of CYP1A1 (AHR [1]): no differences | number of the 117 differentially expressed genes affected by TCDD exposure (AHR [2]): 16 genes

Structure (SMILES): c1ccc2c(c1)cc1ccc3cccc4ccc2c1c34 [Benzo(a)pyrene]
concentration at which CYP1A1 and CYP1B1 mRNA levels are slightly induced (AHR^V381 [3]): 1 µM

number of the 117 genes differing between AHR^A381 and AHR^V381 cells that change expression upon inhibitor treatment (AHR^A381): 20 genes | number of the 117 genes differing between AHR^A381 and AHR^V381 cells that change expression upon inhibitor treatment (AHR^V381 [4]): none
Structure (SMILES): Cc1ccccc1N=Nc1ccc(NC(=O)c2ccnn2C)c(C)c1 [CH-223191]
target gene expression upon inhibitor treatment (AHR^V381 [4]): tends to be further reduced upon treatment with the inhibitor, albeit not significantly so
